According to ChEMBL document CHEMBL1201862, “PubChem BioAssay data set” (2004):
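Interpolation was linear, between the two tested concentrations surrounding the appropriate level; five concentrations were tested over 48 hours in 96-well plates. At the GI50, growth is halved.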 The source made the active and inactive calls. Cut-off read from the data, not from the text of the source: active = GI50 up to about 1.1 µM and inactive = higher.

How the values were obtained:
Assay in all cases: DTP human tumour cell line panel, 48 h
786-0 = system: 786-0
A498 = system: A498
A549 = system: A549
ACHN = system: ACHN
BT-549 = system: BT-549
CAKI-1 = system: CAKI-1
CCRF-CEM = system: CCRF-CEM
COLO 205 = system: COLO 205
DU-145 = system: DU-145
EKVX = system: EKVX
HCC 2998 = system: HCC 2998
HCT-116 = system: HCT-116
HCT-15 = system: HCT-15
HL-60 = system: HL-60
HOP-62 = system: HOP-62
HOP-92 = system: HOP-92
HT-29 = system: HT-29
Hs-578T = system: Hs-578T
IGROV-1 = system: IGROV-1
K562 = system: K562
KM12 = system: KM12
LOX IMVI = system: LOX IMVI
M14 = system: M14
MCF7 = system: MCF7
MDA-MB-231 = system: MDA-MB-231
MDA-MB-435 = system: MDA-MB-435
MDA-N = system: MDA-N
MOLT-4 = system: MOLT-4
Malme-3M = system: Malme-3M
NCI-H226 = system: NCI-H226
NCI-H23 = system: NCI-H23
NCI-H460 = system: NCI-H460
NCI-H522 = system: NCI-H522
NCI/ADR-RES = system: NCI/ADR-RES
OVCAR-3 = system: OVCAR-3
OVCAR-4 = system: OVCAR-4
OVCAR-5 = system: OVCAR-5
OVCAR-8 = system: OVCAR-8
PC-3 = system: PC-3
RPMI-8226 = system: RPMI-8226
RXF 393 = system: RXF 393
SF-268 = system: SF-268
SF-295 = system: SF-295
SF-539 = system: SF-539
SK-MEL-28 = system: SK-MEL-28
SK-MEL-2 = system: SK-MEL-2
SK-MEL-5 = system: SK-MEL-5
SK-OV-3 = system: SK-OV-3
SN12C = system: SN12C
SNB-19 = system: SNB-19
SNB-75 = system: SNB-75
SR = system: SR
SW-620 = system: SW-620
T47D = system: T47D
TK-10 = system: TK-10
U-251 = system: U-251
UACC-257 = system: UACC-257
UACC-62 = system: UACC-62
UO-31 = system: UO-31

For `O=C(CN(c1ccc(S(=O)(=O)O)cc1)c1ccc(S(=O)(=O)O)cc1)Nn1cnc2ccc(S(=O)(=O)N(c3ccc(S(=O)(=O)O)cc3)c3ccc(S(=O)(=O)O)cc3)cc2c1=O`, the GI50 (786-0) was > 100 µM (inactive), the GI50 (A498) was > 100 µM (inactive) and the GI50 (A549) was > 100 µM (inactive). The GI50 (ACHN) was > 100 µM (inactive), the GI50 (BT-549) was > 100 µM (inactive) and the GI50 (CAKI-1) was > 100 µM (inactive). The GI50 (CCRF-CEM) was > 100 µM (inactive), the GI50 (COLO 205) was > 100 µM (inactive) and the GI50 (DU-145) was > 100 µM (inactive). The GI50 (EKVX) was > 100 µM (inactive), the GI50 (HCC 2998) was > 100 µM (inactive) and the GI50 (HCT-116) was > 100 µM (inactive). For the same molecule, the GI50 (HCT-15) was > 100 µM, the GI50 (HL-60) was > 100 µM (inactive) and the GI50 (HOP-62) was > 100 µM (inactive). The GI50 (HOP-92) was > 100 µM (inactive), the GI50 (HT-29) was > 100 µM (inactive) and the GI50 (Hs-578T) was > 100 µM (inactive). The GI50 (IGROV-1) was 61.2 µM (inactive), the GI50 (K562) was > 100 µM (inactive) and the GI50 (KM12) was > 100 µM (inactive). The GI50 (LOX IMVI) was > 100 µM (inactive), the GI50 (M14) was > 100 µM (inactive) and the GI50 (MCF7) was > 100 µM (inactive). For the same molecule, the GI50 (MDA-MB-231) was > 100 µM (inactive), the GI50 (MDA-MB-435) was > 100 µM (inactive) and the GI50 (MDA-N) was > 100 µM (inactive). For the same molecule, the GI50 (MOLT-4) was > 100 µM (inactive), the GI50 (Malme-3M) was > 100 µM (inactive) and the GI50 (NCI-H226) was > 100 µM (inactive). For the same molecule, the GI50 (NCI-H23) was > 100 µM (inactive), the GI50 (NCI-H460) was > 100 µM (inactive) and the GI50 (NCI-H522) was > 100 µM (inactive). For the same molecule, the GI50 (NCI/ADR-RES) was > 100 µM (inactive), the GI50 (OVCAR-3) was > 100 µM (inactive) and the GI50 (OVCAR-4) was > 100 µM (inactive). The GI50 (OVCAR-5) was > 100 µM (inactive), the GI50 (OVCAR-8) was > 100 µM (inactive) and the GI50 (PC-3) was > 100 µM (inactive). For the same molecule, the GI50 (RPMI-8226) was > 100 µM (inactive), the GI50 (RXF 393) was > 100 µM (inactive) and the GI50 (SF-268) was > 100 µM (inactive). For the same molecule, the GI50 (SF-295) was > 100 µM (inactive), the GI50 (SF-539) was > 100 µM (inactive) and the GI50 (SK-MEL-28) was > 100 µM (inactive). For the same molecule, the GI50 (SK-MEL-2) was > 100 µM (inactive), the GI50 (SK-MEL-5) was > 100 µM (inactive) and the GI50 (SK-OV-3) was > 100 µM (inactive). For the same molecule, the GI50 (SN12C) was > 100 µM (inactive), the GI50 (SNB-19) was > 100 µM (inactive) and the GI50 (SNB-75) was > 100 µM (inactive). The GI50 (SR) was > 100 µM (inactive), the GI50 (SW-620) was > 100 µM (inactive) and the GI50 (T47D) was > 100 µM (inactive). The GI50 (TK-10) was > 100 µM (inactive), the GI50 (U-251) was > 100 µM (inactive) and the GI50 (UACC-257) was > 100 µM (inactive). The GI50 (UACC-62) was > 100 µM (inactive) and the GI50 (UO-31) was > 100 µM (inactive).

In the case of `COc1ccc(C2C3=C(COC3=O)OC(C)(C)Oc3cc4c(cc32)OCO4)cc1` (stereo not drawn), the GI50 (786-0) is reported as 39.4 µM (inactive), the GI50 (A498) is reported as 22.8 µM (inactive) and the GI50 (A549) is reported as 35.6 µM (inactive). For the same molecule, the GI50 (ACHN) was 40 µM (inactive), the GI50 (BT-549) was 16.9 µM (inactive) and the GI50 (CAKI-1) was 24.1 µM (inactive). The GI50 (CCRF-CEM) was 22.4 µM (inactive), the GI50 (COLO 205) was 16.1 µM (inactive) and the GI50 (DU-145) was 32.5 µM (inactive). For the same molecule, the GI50 (EKVX) was 35.5 µM (inactive), the GI50 (HCC 2998) was 40.5 µM (inactive) and the GI50 (HCT-116) was 25.4 µM (inactive). The GI50 (HCT-15) was 23.7 µM, the GI50 (HL-60) was 12 µM (inactive) and the GI50 (HOP-62) was 23.6 µM (inactive). The GI50 (HOP-92) was 11.8 µM (inactive), the GI50 (HT-29) was 24.4 µM (inactive) and the GI50 (Hs-578T) was 27.4 µM (inactive). The GI50 (IGROV-1) was 29.3 µM (inactive), the GI50 (K562) was 5.13 µM (inactive) and the GI50 (KM12) was 8.81 µM (inactive). The GI50 (LOX IMVI) was 26.2 µM (inactive), the GI50 (M14) was 24.2 µM (inactive) and the GI50 (MCF7) was > 64.4 µM (inactive). For the same molecule, the GI50 (MDA-MB-231) was 18.6 µM (inactive), the GI50 (MDA-MB-435) was 3.51 µM (inactive) and the GI50 (MDA-N) was 2.96 µM (inactive). For the same molecule, the GI50 (MOLT-4) was 23.3 µM (inactive), the GI50 (Malme-3M) was 17.7 µM (inactive) and the GI50 (NCI-H226) was > 55.3 µM (inactive). The GI50 (NCI-H23) was 34.4 µM (inactive), the GI50 (NCI-H460) was 26.7 µM (inactive) and the GI50 (NCI-H522) was 17.4 µM (inactive). For the same molecule, the GI50 (NCI/ADR-RES) was 18.5 µM (inactive), the GI50 (OVCAR-3) was 36.6 µM (inactive) and the GI50 (OVCAR-4) was 33.9 µM (inactive). The GI50 (OVCAR-5) was 56.8 µM (inactive), the GI50 (OVCAR-8) was 55.8 µM (inactive) and the GI50 (PC-3) was 15.1 µM (inactive). For the same molecule, the GI50 (RPMI-8226) was 34.1 µM (inactive), the GI50 (RXF 393) was 36.6 µM (inactive) and the GI50 (SF-268) was 44.6 µM (inactive). For the same molecule, the GI50 (SF-295) was 35.2 µM (inactive), the GI50 (SF-539) was 24.2 µM (inactive) and the GI50 (SK-MEL-28) was 43.1 µM (inactive). The GI50 (SK-MEL-2) was 37.8 µM (inactive), the GI50 (SK-MEL-5) was 20.4 µM (inactive) and the GI50 (SK-OV-3) was 50.1 µM (inactive). For the same molecule, the GI50 (SN12C) was 37 µM (inactive), the GI50 (SNB-19) was 45.3 µM (inactive) and the GI50 (SNB-75) was 9.46 µM (inactive). The GI50 (SR) was 43.1 µM (inactive), the GI50 (SW-620) was 21.8 µM (inactive) and the GI50 (T47D) was 26.3 µM (inactive). The GI50 (TK-10) was 43.5 µM (inactive), the GI50 (U-251) was 31.8 µM (inactive) and the GI50 (UACC-257) was 38.3 µM (inactive). For the same molecule, the GI50 (UACC-62) was 25.5 µM (inactive) and the GI50 (UO-31) was 28.8 µM (inactive).
